In patent US11058680B2, “Combinations of opioid/TLR4 antagonists and acetaminophen for use in the treatment of emotional pain and insomnia” (Allodynic Threapeutics, LLC, priority 2016, dated 2021):

System: migraine attacks
Test: Naltrexone/acetaminophen open-label pilot study, acute treatment of migraine: headache pain (4-point scale; relief score ≤1, pain-free score = 0), associated symptoms, additional meds
Type: in vivo, human
Experimental: Sixteen unique patients were enrolled in an open phase pilot study for the acute treatment of migraine attacks, insomnia, and emotional pain. Of the sixteen patients, eleven were evaluated for one migraine attack, one for two attacks, two for four attacks, one for six attacks, and one for fourteen attacks. A total of forty-one […] treatments were evaluated. Patients received a single dose of one of the following treatment options:
The majority of the patients remained in the clinic for observation for 2 hours after dosing. They completed headache diary assessments immediately before and after dosing at time points: 7, 15, and 30 minutes; and 1, 1.5, 2, 3, 6, 12, 24, and 48 hours. Headache pain was assessed on a 4-point scale (0=none; 1=mild; 2=moderate; 3=severe). The assessment of photophobia, phonophobia, nausea, and neck/shoulder pain was assessed as present or absent. The assessment of emotional pain was recorded on a 4-point scale (0=none, 1=mild, 2=moderate, 3=severe). The assessment of difficulty sleeping or falling asleep (insomnia) was assessed on a 4-point scale (0=none, 1=mild, 2=moderate, 3=severe) at baseline, for the night before treatment and for the following nights at 24, and 48 hours. Patients recorded side effects severity at each time point. Patients recorded the time of the first rescue medication dose and all additional headache medications used within 48 hours. Patients were required to stay awake to record their assessments in the first 2 hours, sleeping was permitted thereafter. While asleep, assessments were completed according to patients' best estimation. For data analysis, it was assumed that a migraine attack is a unique patient. Patients were asked to specify (yes or no answer) to whether they experienced emotional pain symptoms such as: hurt feelings, sadness, fear, or anger. Patients who replied positively to having emotional pain were asked to specify the cause into one of the following options: relationship, work/school, money/debt, health, or loss/grief.

[1] = 7 min, NTX/APAP 2.25 mg/325 mg, NTX 2.25 mg
[2] = 7 min, NTX/APAP 3.25 mg/325 mg, NTX 3.25 mg
[3] = 7 min, NTX/APAP 5 mg/325 mg, NTX 5 mg
[4] = 7 min, naltrexone/acetaminophen 2.25 mg/325 mg (N=15), naltrexone 2.25 mg (N=3)
[5] = 15 min, NTX/APAP 2.25 mg/325 mg, NTX 2.25 mg
[6] = 15 min, NTX/APAP 3.25 mg/325 mg, NTX 3.25 mg
[7] = 15 min, NTX/APAP 5 mg/325 mg, NTX 5 mg
[8] = 15 min, NTX/APAP […]325 mg, NTX 1.5 mg
[9] = 15 min, naltrexone/acetaminophen 2.25 mg/325 mg (N=21), naltrexone 2.25 mg (N=9)
[10] = 30 min, NTX/APAP 2.25 mg/325 mg, NTX 2.25 mg
[11] = 30 min, NTX/APAP 3.25 mg/325 mg, NTX 3.25 mg
[12] = 30 min, NTX/APAP 5 mg/325 mg, NTX 5 mg
[13] = 30 min, NTX/APAP […]325 mg, NTX 1.5 mg
[14] = 30 min, naltrexone/acetaminophen 2.25 mg/325 mg (N=21), naltrexone 2.25 mg (N=9)
[15] = 1 h, NTX/APAP 2.25 mg/325 mg, NTX 2.25 mg
[16] = 1 h, NTX/APAP 3.25 mg/325 mg, NTX 3.25 mg

Question: Which results are given for `O=C1CC[C@@]2(O)[C@H]3Cc4ccc(O)c5c4[C@@]2(CCN3CC2CC2)[C@H]1O5` [naltrexone]?
Answer: Additional meds taken [1]: 0 (0); Headache pain-free [1]: 0 (0) n (%); Headache pain-relief [1]: 0 (0) n (%); Most bothersome symptom free [1]: 0 (0) n (%); Nausea-free [1]: 0 (0) n (%); Neck/shoulder pain-free [1]: 2 (67) n (%); Phonophobia-free [1]: 2 (67) n (%); Photophobia-free [1]: 0 (0) n (%); Additional meds taken [2]: 0; Headache pain-free [2]: 0 n (%); Headache pain-relief [2]: 0 n (%); Most bothersome symptom free [2]: 0 n (%); Nausea-free [2]: 2 n (%); Neck/shoulder pain-free [2]: 0 n (%); Phonophobia-free [2]: 0 n (%); Photophobia-free [2]: 1 n (%); Additional meds taken [3]: 0; Headache pain-free [3]: 0 n (%); Headache pain-relief [3]: 0 n (%); Most bothersome symptom free [3]: 0 n (%); Nausea-free [3]: 0 n (%); Neck/shoulder pain-free [3]: 0 n (%); Phonophobia-free [3]: 0 n (%); Photophobia-free [3]: 0 n (%); Additional meds taken (7 min, all doses combined): 0 (0); Headache pain-free (7 min, all doses combined): 0 (0) n (%); Headache pain-relief (7 min, all doses combined): 0 (0) n (%); Most bothersome symptom free (7 min, all doses combined): 0 (0) n (%); Nausea-free (7 min, all doses combined): 2 (33) n (%); Neck/shoulder pain-free (7 min, all doses combined): 2 (33) n (%); Phonophobia-free (7 min, all doses combined): 2 (33) n (%); Photophobia-free (7 min, all doses combined): 1 (16) n (%); Headache pain-free [4]: 0%; Most bothersome symptom-free [4]: 0%; Additional meds taken [5]: 0 (0); Headache pain-free [5]: 0 (0) n (%); Headache pain-relief [5]: 4 (44) n (%); Most bothersome symptom free [5]: 1 (11) n (%); Nausea-free [5]: 3 (33) n (%); Neck/shoulder pain-free [5]: 4 (44) n (%); Phonophobia-free [5]: 4 (44) n (%); Photophobia-free [5]: 3 (33) n (%); Additional meds taken [6]: 0; Headache pain-free [6]: 0 n (%); Headache pain-relief [6]: 2 n (%); Most bothersome symptom free [6]: 0 n (%); Nausea-free [6]: 3 n (%); Neck/shoulder pain-free [6]: 0 n (%); Phonophobia-free [6]: 0 n (%); Photophobia-free [6]: 1 n (%); Additional meds taken [7]: 1; Headache pain-free [7]: 0 n (%); Headache pain-relief [7]: 0 n (%); Most bothersome symptom free [7]: 0 n (%); Nausea-free [7]: 0 n (%); Neck/shoulder pain-free [7]: 0 n (%); Phonophobia-free [7]: 0 n (%); Photophobia-free [7]: 0 n (%); Additional meds taken [8]: 0; Headache pain-free [8]: 0 n (%); Headache pain-relief [8]: 1 n (%); Most bothersome symptom free [8]: 0 n (%); Nausea-free [8]: 2 n (%); Neck/shoulder pain-free [8]: 1 n (%); Phonophobia-free [8]: 0 n (%); Photophobia-free [8]: 0 n (%); Additional meds taken (15 min, all doses combined): 0 (0); Headache pain-free (15 min, all doses combined): 0 (0) n (%); Headache pain-relief (15 min, all doses combined): 7 (44) n (%); Most bothersome symptom free (15 min, all doses combined): 1 (6) n (%); Nausea-free (15 min, all doses combined): 8 (50) n (%); Neck/shoulder pain-free (15 min, all doses combined): 5 (31) n (%); Phonophobia-free (15 min, all doses combined): 4 (25) n (%); Photophobia-free (15 min, all doses combined): 4 (25) n (%); Headache pain-free [9]: 0%; Headache pain-relief [9]: 44%; Most bothersome symptom-free [9]: 11%; Additional meds taken [10]: 0; Headache pain-free [10]: 2 (22) n (%); Headache pain-relief [10]: 7 (78) n (%); Most bothersome symptom free [10]: 6 (67) n (%); Nausea-free [10]: 8 (88) n (%); Neck/shoulder pain-free [10]: 6 (67) n (%); Phonophobia-free [10]: 7 (78) n (%); Photophobia-free [10]: 5 (56) n (%); Additional meds taken [11]: 0 (0); Headache pain-free [11]: 0 (0) n (%); Headache pain-relief [11]: 2 (66) n (%); Most bothersome symptom free [11]: 0 (0) n (%); Nausea-free [11]: 2 (66) n (%); Neck/shoulder pain-free [11]: 0 (0) n (%); Phonophobia-free [11]: 0 (0) n (%); Photophobia-free [11]: 1 (33) n (%); Additional meds taken [12]: 0 (0); Headache pain-free [12]: 0 (0) n (%); Headache pain-relief [12]: 0 (0) n (%); Most bothersome symptom free [12]: 0 (0) n (%); Nausea-free [12]: 0 (0) n (%); Neck/shoulder pain-free [12]: 1 (100) n (%); Phonophobia-free [12]: 1 (100) n (%); Photophobia-free [12]: 1 (100) n (%); Additional meds taken [13]: 0 (0); Headache pain-free [13]: 0 (0) n (%); Headache pain-relief [13]: 2 (66) n (%); Most bothersome symptom free [13]: 0 (0) n (%); Nausea-free [13]: 2 (66) n (%); Neck/shoulder pain-free [13]: 1 (33) n (%); Phonophobia-free [13]: 0 (0) n (%); Photophobia-free [13]: 0 (0) n (%); Additional meds taken (30 min, all doses combined): 0 (0); Headache pain-free (30 min, all doses combined): 2 (13) n (%); Headache pain-relief (30 min, all doses combined): 10 (63) n (%); Most bothersome symptom free (30 min, all doses combined): 6 (38) n (%); Nausea-free (30 min, all doses combined): 12 (75) n (%); Neck/shoulder pain-free (30 min, all doses combined): 8 (50) n (%); Phonophobia-free (30 min, all doses combined): 8 (50) n (%); Photophobia-free (30 min, all doses combined): 7 (48) n (%); Headache pain-free (30 min, naltrexone 1.5 mg (N=3)): 0%; Headache pain-free [14]: 22%; Headache pain-relief [14]: 78%; Most bothersome symptom-free [14]: 67%; Headache pain-free (30 min, naltrexone/acetaminophen 3.25 mg/325 mg (N=3), naltrexone 3.25 mg (N=3)): 0%; Additional meds taken [15]: 0 (0); Headache pain-free [15]: 4 (44) n (%); Headache pain-relief [15]: 8 (88) n (%); Most bothersome symptom free [15]: 7 (77) n (%); Nausea-free [15]: 9 (100) n (%); Neck/shoulder pain-free [15]: 6 (66) n (%); Phonophobia-free [15]: 8 (88) n (%); Photophobia-free [15]: 6 (66) n (%); Additional meds taken [16]: 0; Headache pain-free [16]: 3 (100) n (%)
